Assay results taken from patent US8445510B2, “Fused bicyclic kinase inhibitors” (OSI Pharmaceuticals, LLC, priority 2011, dated 2013).

Legend:
Karpas-299 cells = test: Karpas-299 cell proliferation assay (CellTiter-Glo); format: cell-based; conditions: Homo sapiens, 72 h; Karpas-299 cell line (NPM-ALK); 3 days incubation; at least duplicate experiments; read-out: Prolif. IC50
MKN45 cells = test: MKN45 cell proliferation assay (CellTiter-Glo); format: cell-based; conditions: Homo sapiens, MKN-45, 72 h; MKN45 cell line; 3 days incubation; at least duplicate experiments; read-out: Prolif. IC50

IC50 (Karpas-299 cells)	IC50 (MKN45 cells)	SMILES
200 to 1000 nM	50 to 200 nM	COc1ccc(F)c(Cl)c1[C@@H](C)c1c[nH]c2ncc(-c3cnc(C)n3C)cc12 [Example 65, 3-[(1S)-1-(2-chloro-3-fluoro-6-methoxyphenyl)ethyl]-5-(1,2-dimethyl-1H-imidazol-5-yl)-1H-pyrrolo[2,3-b]pyridine]
50 to 200 nM	≤ 50 nM	CCc1nn([C@H]2CC[C@H](O)CC2)cc1-c1cnc2[nH]cc([C@H](C)c3c(OC)ccc(F)c3Cl)c2c1 [Example 47, trans-4-(4-{3-[(1S)-1-(2-Chloro-3-fluoro-6-methoxyphenyl)ethyl]-1H-pyrrolo[2,3-b]pyridin-5-yl}-3-ethyl-1H-pyrazol-1-yl)cyclohexanol]
50 to 200 nM	≤ 50 nM	C[C@H](c1c(OC(F)F)ccc(F)c1Cl)c1c[nH]c2ncc(-c3cnn([C@H]4CC[C@H](O)CC4)c3F)cc12 [Example 84, trans-4-[4-(3-{(1S)-1-[2-Chloro-6-(difluoromethoxy)-3-fluorophenyl]ethyl}-1H-pyrrolo[2,3-b]pyridin-5-yl)-5-fluoro-1H-pyrazol-1-yl]cyclohexanol]
≤ 50 nM	≤ 50 nM	COc1ccc(F)c(Cl)c1[C@@H](C)c1c[nH]c2ncc(-c3cnn([C@H]4CC[C@@H](N(C)C)CC4)c3C)cc12 [Example 54, cis-4-(4-{3-[(1S)-1-(2-Chloro-3-fluoro-6-methoxyphenyl)ethyl]-1H-pyrrolo[2,3-b]pyridin-5-yl}-5-methyl-1H-pyrazol-1-yl)-N,N-dimethylcyclohexanamine]
200 to 1000 nM	≤ 50 nM	COc1ccc(F)c(Cl)c1[C@@H](C)c1c[nH]c2ncc(-c3cn(C)nc3OC)cc12 [Example 61, 3-[(1S)-1-(2-Chloro-3-fluoro-6-methoxyphenyl)ethyl]-5-(3-methoxy-1-methyl-1H-pyrazol-4-yl)-1H-pyrrolo[2,3-b]pyridine]
200 to 1000 nM	50 to 200 nM	COc1ccc(F)c(Cl)c1[C@@H](C)c1c[nH]c2ncc(-c3cnn(C[C@@H](O)CO)c3C(F)(F)F)cc12 [Example 35, (2R)-3-[4-{3-[(1S)-1-(2-Chloro-3-fluoro-6-methoxyphenyl)ethyl]-1H-pyrrolo[2,3-b]pyridin-5-yl}-5-(trifluoromethyl)-1H-pyrazol-1-yl]propane-1,2-diol]
≤ 50 nM	≤ 50 nM	COc1ccc(F)c(Cl)c1[C@@H](C)c1c[nH]c2ncc(-c3cn([C@H]4CC[C@H](C(N)=O)CC4)nc3C)cc12 [Example 19, trans-4-(4-{3-[(1S)-1-(2-Chloro-3-fluoro-6-methoxyphenyl)ethyl]-1H-pyrrolo[2,3-b]pyridin-5-yl}-3-methyl-1H-pyrazol-1-yl)cyclohexanecarboxamide]
≤ 50 nM	≤ 50 nM	Cc1nn(C[C@@H](O)CO)c(C)c1-c1cnc2[nH]cc([C@H](C)c3c(Cl)ccc(F)c3Cl)c2c1 [Example 66, (2R)-3-(4-{3-[(1S)-1-(2,6-Dichloro-3-fluorophenyl)ethyl]-1H-pyrrolo[2,3-b]pyridin-5-yl}-3,5-dimethyl-1H-pyrazol-1-yl)propane-1,2-diol]
50 to 200 nM	≤ 50 nM	COc1ccc(F)c(Cl)c1[C@@H](C)c1c[nH]c2ncc(-c3cnn(CC(C)(C)O)c3C)cc12 [Example 8, 1-(4-{3-[(1S)-1-(2-Chloro-3-fluoro-6-methoxyphenyl)ethyl]-1H-pyrrolo[2,3-b]pyridin-5-yl}-5-methyl-1H-pyrazol-1-yl)-2-methylpropan-2-ol]
50 to 200 nM	≤ 50 nM	COc1ccc(F)c(Cl)c1[C@@H](C)c1c[nH]c2ncc(-c3cn(CC(C)(C)O)nc3C)cc12 [Example 7, 1-(4-{3-[(1S)-1-(2-Chloro-3-fluoro-6-methoxyphenyl)ethyl]-1H-pyrrolo[2,3-b]pyridin-5-yl}-3-methyl-1H-pyrazol-1-yl)-2-methylpropan-2-ol]
200 to 1000 nM	50 to 200 nM	COc1ccc(F)c(Cl)c1[C@@H](C)c1c[nH]c2ncc(-c3cn(C[C@@H](O)CO)nc3C(F)(F)F)cc12 [Example 34, (2R)-3-[4-{3-[(1S)-1-(2-Chloro-3-fluoro-6-methoxyphenyl)ethyl]-1H-pyrrolo[2,3-b]pyridin-5-yl}-3-(trifluoromethyl)-1H-pyrazol-1-yl]propane-1,2-diol]
≤ 50 nM	≤ 50 nM	CNC(=O)[C@H]1CC[C@H](n2cc(-c3cnc4[nH]cc([C@H](C)c5c(OC)ccc(F)c5Cl)c4c3)c(C)n2)CC1 [Example 22, trans-4-(4-{3-[(1S)-1-(2-Chloro-3-fluoro-6-methoxyphenyl)ethyl]-1H-pyrrolo[2,3-b]pyridin-5-yl}-3-methyl-1H-pyrazol-1-yl)-N-methylcyclohexanecarboxamide]
50 to 200 nM	≤ 50 nM	COc1ccc(F)c(Cl)c1[C@@H](C)c1c[nH]c2ncc(-c3cnn([C@H]4CC[C@@H](O)CC4)c3C)cc12 [Example 52, cis-4-(4-{3-[(1S)-1-(2-Chloro-3-fluoro-6-methoxyphenyl)ethyl]-1H-pyrrolo[2,3-b]pyridin-5-yl}-5-methyl-1H-pyrazol-1-yl)cyclohexanol]
≤ 50 nM	≤ 50 nM	Cc1nn(C[C@@H](O)CO)c(C)c1-c1cnc2[nH]cc([C@H](C)c3c(OC(F)F)ccc(F)c3Cl)c2c1 [Example 69, (2R)-3-[4-(3-{(1S)-1-[2-Chloro-6-(difluoromethoxy)-3-fluorophenyl]ethyl}-1H-pyrrolo[2,3-b]pyridin-5-yl)-3,5-dimethyl-1H-pyrazol-1-yl]propane-1,2-diol]
≤ 50 nM	≤ 50 nM	COc1ccc(F)c(Cl)c1[C@@H](C)c1c[nH]c2ncc(-c3cnn([C@H]4CC[C@H](C(N)=O)CC4)c3C)cc12 [Example 18, trans-4-(4-{3-[(1S)-1-(2-chloro-3-fluoro-6-methoxyphenyl)ethyl]-1H-pyrrolo[2,3-b]pyridin-5-yl}-5-methyl-1H-pyrazol-1-yl)cyclohexanecarboxamide]
≤ 50 nM	≤ 50 nM	COc1ccc(F)c(Cl)c1[C@@H](C)c1c[nH]c2ncc(-c3cnn([C@H]4CC[C@H](N(C)C)CC4)c3C)cc12 [Example 53, trans-4-(4-{3-[(1S)-1-(2-Chloro-3-fluoro-6-methoxyphenyl)ethyl]-1H-pyrrolo[2,3-b]pyridin-5-yl}-5-methyl-1H-pyrazol-1-yl)-N,N-dimethylcyclohexanamine]
50 to 200 nM	≤ 50 nM	C[C@H](c1c(OC(F)F)ccc(F)c1Cl)c1c[nH]c2ncc(-c3cnn([C@H]4CC[C@H](O)CC4)c3Cl)cc12 [Example 82, trans-4-[5-Chloro-4-(3-{(1S)-1-[2-chloro-6-(difluoromethoxy)-3-fluorophenyl]ethyl}-1H-pyrrolo[2,3-b]pyridin-5-yl)-1H-pyrazol-1-yl]cyclohexanol]
50 to 200 nM	50 to 200 nM	COc1ccc(F)c(Cl)c1[C@@H](C)c1c[nH]c2ncc(-c3cn(C)nc3C)cc12 [Example 2, 3-[(1S)-1-(2-Chloro-3-fluoro-6-methoxyphenyl)ethyl]-5-(1,3-dimethyl-1H-pyrazol-4-yl)-1H-pyrrolo[2,3-b]pyridine]
> 1000 nM	200 to 1000 nM	COc1ccc(F)c(Cl)c1[C@@H](C)c1c[nH]c2ncc(-c3cnn(C)c3C(N)=O)cc12 [Example 43, 4-{3-[(1S)-1-(2-Chloro-3-fluoro-6-methoxyphenyl)ethyl]-1H-pyrrolo[2,3-b]pyridin-5-yl}-1-methyl-1H-pyrazole-5-carboxamide]
≤ 50 nM	≤ 50 nM	Cc1c(-c2cnc3[nH]cc([C@H](C)c4c(OC(F)F)ccc(F)c4Cl)c3c2)cnn1[C@H]1CC[C@H](C(N)=O)CC1 [Example 76, trans-4-[4-(3-{(1S)-1-[2-Chloro-6-(difluoromethoxy)-3-fluorophenyl]ethyl}-1H-pyrrolo[2,3-b]pyridin-5-yl)-5-methyl-1H-pyrazol-1-yl]cyclohexanecarboxamide]
≤ 50 nM	≤ 50 nM	Cc1c(-c2cnc3[nH]cc([C@H](C)c4c(OCC(F)(F)F)ccc(F)c4Cl)c3c2)cnn1[C@H]1CC[C@H](O)CC1 [Example 105, trans-4-[4-(3-{(1S)-1-[2-Chloro-3-fluoro-6-(2,2,2-trifluoroethoxy)-phenyl]ethyl}-1H-pyrrolo[2,3-b]pyridin-5-yl)-5-methyl-1H-pyrazol-1-yl]cyclohexanol]
≤ 50 nM	≤ 50 nM	COc1ccc(F)c(Cl)c1[C@@H](C)c1c[nH]c2ncc(-c3c(C)nn([C@@H]4C[C@@H](O)[C@@H](O)C4)c3C)cc12 [Example 33, (1R,2S,4S)-4-(4-{3-[(1S)-1-(2-Chloro-3-fluoro-6-methoxyphenyl)ethyl]-1H-pyrrolo[2,3-b]pyridin-5-yl}-3,5-dimethyl-1H-pyrazol-1-yl)cyclopentane-1,2-diol]
50 to 200 nM	200 to 1000 nM	COc1ccc(F)c(Cl)c1[C@@H](C)c1c[nH]c2ncc(-c3c(C)nn(C)c3CO)cc12 [Example 45, (4-{3-[(1S)-1-(2-Chloro-3-fluoro-6-methoxyphenyl)ethyl]-1H-pyrrolo[2,3-b]pyridin-5-yl}-1,3-dimethyl-1H-pyrazol-5-yl)methanol]
200 to 1000 nM	200 to 1000 nM	COc1ccc(F)c(Cl)c1[C@@H](C)c1c[nH]c2ncc(-c3c(C)nn(C)c3Cl)cc12 [Example 63, 5-(5-Chloro-1,3-dimethyl-1H-pyrazol-4-yl)-3-[(1S)-1-(2-chloro-3-fluoro-6-methoxyphenyl)ethyl]-1H-pyrrolo[2,3-b]pyridine]
≤ 50 nM	≤ 50 nM	COc1ccc(F)c(Cl)c1[C@@H](C)c1c[nH]c2ncc(-c3cn([C@@H]4C[C@@H](O)[C@@H](O)C4)nc3C)cc12 [Example 32, (1R,2S,4S)-4-(4-{3-[(1S)-1-(2-Chloro-3-fluoro-6-methoxyphenyl)ethyl]-1H-pyrrolo[2,3-b]pyridin-5-yl}-3-methyl-1H-pyrazol-1-yl)cyclopentane-1,2-diol]
50 to 200 nM	≤ 50 nM	CCc1c(-c2cnc3[nH]cc([C@H](C)c4c(OC)ccc(F)c4Cl)c3c2)cnn1[C@H]1CC[C@H](O)CC1 [Example 48, trans-4-(4-{3-[(1S)-1-(2-Chloro-3-fluoro-6-methoxyphenyl)ethyl]-1H-pyrrolo[2,3-b]pyridin-5-yl}-5-ethyl-1H-pyrazol-1-yl)cyclohexanol]
